The source of these data is patent US20230158040A1, “METHYLTHIONINIUM COMPOUNDS FOR USE IN THE TREATMENT OF HYPOXEMIA” (WisTa Laboratories Ltd., priority 2020, published 2023).

Data set [1] can be described thus: Oxygen saturation (SpO2) in clinical trial subjects with low oxygen saturation, pre-dose vs 4 hrs after a single dose. In kind it is in vivo, human. An excerpt:
The present inventors have used data available for patients participating in clinical trials to determine whether LMT enhances oxygen saturation of blood. Data were available for 18 subjects with oxygen saturation <94% at baseline (lower limit of normal range is
These patients recorded a variety of respiratory or other conditions of various degrees of severity which it was suspected may have contributed to the detected hypoxemia, including sleep apnoea, insomnia (which may be indicative of Paroxysmal nocturnal dyspnea or paroxysmal nocturnal dyspnoea), asbestosis, oedema, asthma, bronchitis, allergies, angioedema, pneumonia, acute myocardial infarction/ hypertension, Coronary artery disease with angioplasty and stent insertion, transient ischaemic attacks (TIA), hypothyroidism, diabetes, syncope, tachycardia and sepsis. […]

The test system of the next data set is metHb. Briefly: metHb levels in clinical trial subjects receiving LMTM. In kind it is in vivo, human. An excerpt:
In order to understand this effect further the inventors investigated whether the low oxygen saturation in these patients is due to elevation in metHb levels. There was no difference in metHb levels at baseline between subjects with low SpO2 and those with SpO2 levels in the normal range.
Therefore, LMTM is able to act on haemoglobin over a range of doses in such a way as to enhance oxygen saturation in the blood by a novel mechanism unrelated to its known effects on metHb.

The mark [2] stands for this setting: LMT at high concentrations, oral doses in the range 150-250 mg/day.

For the compound `CN(C)c1ccc2c(c1)Sc1cc(N(C)C)ccc1N2` [LMTM, leuco-methylthioninium bis(hydromethanesulfonate)], in data set [1] (single dose of LMT at 4 mg and ~100 mg (mean of 75, 100, 125 mg), 18 subjects with oxygen saturation <94% at baseline, pre-dose vs 4 hrs post-dose), the “oxygen saturation at 4 hours” value is “significantly increased”. Moreover, the metHb levels result in the data set with metHb (LMTM at higher doses / high dosages over a period of time, FIG. 3) was “systematically increases”.

As for `CN(C)c1ccc2c(c1)Sc1cc(N(C)C)ccc1N2` [LMT], the SpO2 levels result in data set [1] (setting [2]) is on record as “increase SpO2 levels”. The metHb levels entry in the data set with metHb (setting [2]) is “measurable increase”.
